The values that follow are results of earlier work, collected in patent US20230330223A1, “TREATMENT OF HER2 NEGATIVE, MAMMAPRINT HIGH RISK 2 BREAST CANCER” (Agendia N.V., priority 2020, published 2023).

The subject of the series is locally advanced breast cancer (Stage II/III). Conditions: added to standard neoadjuvant chemotherapy; ERBB2-negative (HER2-negative) breast cancer.

For the substance “pembrolizumab: immune check point inhibitor, PD1/PDL1 inhibitor antibody (Merck)”, the “estimated pCR rates, change versus standard chemotherapy” value was “more than doubled”.
